What was measured:
KRas G12D = KRas G12D (Homo sapiens, UniProt P01116, G12D); assay: biochemical;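 also: TR-FRET displacement binding assay on KRas, read after a one-hour incubation at room temperature, IC50 fitted from percent-of-control values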
Description: (§1) The ability of a compound to bind to KRas was measured using a TR-FRET displacement assay. […] After a 60-minute incubation at room temperature, the reaction was measured using a BMG LABTECH CLARIO star Plus via TR-FRET. […] The POC values were fit to a 4-parameter IC50 equation and the IC50 value reported.

KRas G12R = KRas G12R (Homo sapiens, UniProt P01116, G12R); assay: biochemical;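 also: TR-FRET displacement assay of compound binding to KRas, read after one hour at room temperature, potency from a four-parameter fit of percent-of-control values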
Description: as §1

pERK in ASPC1 cells = assay: Inhibition of KRas phosphorylation of ERK (Cisbio HTRF pERK assay); conditions: Homo sapiens, ASPC1, read-out: Inhibition (HTRF IC50) of KRas-mediated Phosphorylation of ERK, AsPC-1
pERK in H727 cells = assay: as above; conditions: Homo sapiens, NCI-H727, read-out: Inhibition (HTRF IC50) of KRas-mediated Phosphorylation of ERK, H727
KRas G12V = KRas G12V (Homo sapiens, UniProt P01116, G12V); assay: biochemical;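 also: KRas binding measured by TR-FRET displacement at room temperature, IC50 fitted from percent of control values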
Chain of KRas G12V (P01116 1-169 isoform P01116-2 G12V): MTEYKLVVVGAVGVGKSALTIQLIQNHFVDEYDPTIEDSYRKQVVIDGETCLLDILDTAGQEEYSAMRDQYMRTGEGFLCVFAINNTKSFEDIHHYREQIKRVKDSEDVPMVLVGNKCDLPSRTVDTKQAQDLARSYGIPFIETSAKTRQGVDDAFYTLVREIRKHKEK
Description: as §1

KRas G12C = KRas G12C (Homo sapiens, UniProt P01116, G12C); assay: biochemical;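 also: binding to KRas assessed by TR-FRET displacement after one hour incubation at room temperature, potency fitted from percent-of-control values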
Chain of KRas G12C (P01116 1-169 isoform P01116-2 G12C): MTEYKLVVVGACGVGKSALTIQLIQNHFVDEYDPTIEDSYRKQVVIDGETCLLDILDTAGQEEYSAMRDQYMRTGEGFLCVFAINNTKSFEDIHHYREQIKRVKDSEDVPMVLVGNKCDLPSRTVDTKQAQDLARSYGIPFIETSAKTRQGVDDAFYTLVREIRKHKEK
Description: as §1

pERK in PSN1 cells = assay: Inhibition of KRas phosphorylation of ERK (Cisbio HTRF pERK assay); conditions: Homo sapiens, PSN1, 3 h, read-out: Inhibition (HTRF IC50) of KRas-mediated Phosphorylation of ERK, PSN1
pERK in MKN1 cells = assay: as above; conditions: Homo sapiens, MKN-1, 3 h, read-out: Inhibition (HTRF IC50) of KRas-mediated Phosphorylation of ERK, MKN1

Chain of KRas G12D (P01116 1-169 isoform P01116-2 G12D): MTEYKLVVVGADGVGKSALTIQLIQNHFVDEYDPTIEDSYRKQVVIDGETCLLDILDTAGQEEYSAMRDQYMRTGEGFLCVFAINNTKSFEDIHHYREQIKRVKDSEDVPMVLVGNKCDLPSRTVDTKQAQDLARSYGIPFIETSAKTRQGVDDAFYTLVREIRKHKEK
Chain of KRas G12R (P01116 1-169 isoform P01116-2 G12R): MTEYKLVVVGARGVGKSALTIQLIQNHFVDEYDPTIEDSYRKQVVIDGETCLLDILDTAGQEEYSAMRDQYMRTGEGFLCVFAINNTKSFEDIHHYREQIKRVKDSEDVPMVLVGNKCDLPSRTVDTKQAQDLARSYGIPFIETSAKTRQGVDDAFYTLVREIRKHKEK

| Compound | IC50 (KRas G12D) | IC50 (KRas G12R) | IC50 (pERK in ASPC1 cells) | IC50 (pERK in H727 cells) | IC50 (KRas G12V) | IC50 (KRas G12C) | IC50 (pERK in PSN1 cells) | IC50 (pERK in MKN1 cells) |
| --- | --- | --- | --- | --- | --- | --- | --- | --- |
| Cc1cc2[nH]ncc2c(-c2ncc3c(N4CCCC(C)(O)C4)nc(OCC45CCCN4CCC5)nc3c2F)c1C (stereo not shown) [Example 25, 1-(7-(5,6-dimethyl-1H-indazol-4-yl)-8-fluoro-2-((hexahydro-1H-pyrrolizin-7a-yl)methoxy)pyrido[4,3-d]pyrimidin-4-yl)-3-methylpiperidin-3-ol] | 433 nM | 1310 nM | ≥ 10000 nM | ≥ 10000 nM | 633 nM | 679 nM |  |  |
| CCc1c(F)ccc2cc(O)cc(-c3ncc4c(N5CCCC6(CC(F)C6)C5)nc(OC[C@@]56CCCN5C[C@H](F)C6)nc4c3F)c12 (stereo partly drawn) [Example 344, 5-ethyl-6-fluoro-4-(8-fluoro-4-(2-fluoro-6-azaspiro[3.5]nonan-6-yl)-2-(((2R,7aS)-2-fluorohexahydro-1H-pyrrolizin-7a-yl)methoxy)pyrido[4,3-d]pyrimidin-7-yl)naphthalen-2-ol] | 138 nM | 94 nM | 3410 nM | 4820 nM | 83 nM |  | ≥ 10000 nM | 796 nM |
| CCc1c(F)ccc2cc(O)cc(-c3ncc4c(N5CCCC(NS(N)(=O)=O)C5)nc(OC[C@@]56CCCN5C[C@H](F)C6)nc4c3F)c12 (stereo partly drawn) [Example 352, 7-(8-ethyl-7-fluoro-3-hydroxy-1-naphthyl)-8-fluoro-2-(((2R,7aS)-2-fluorohexahydro-1H-pyrrolizin-7a-yl)methoxy)-4-[3-(sulfamoylamino)-1-piperidyl]pyrido[4,3-d]pyrimidine] | ≤ 2 nM | ≤ 2 nM | 948 nM | 1270 nM | ≤ 2 nM |  | ≥ 10000 nM | 46 nM |
| CCc1c(F)ccc2cc(O)cc(-c3ncc4c(N5C[C@@H]6C(=O)NNC(=O)[C@@H]6C5)nc(OC[C@@]56CCCN5C[C@H](F)C6)nc4c3F)c12 [Example 363, (4aR,7aS)-6-(7-(8-ethyl-7-fluoro-3-hydroxynaphthalen-1-yl)-8-fluoro-2-(((2R,7aS)-2-fluorotetrahydro-1H-pyrrolizin-7a(5H)-yl)methoxy)pyrido[4,3-d]pyrimidin-4-yl)hexahydro-1H-pyrrolo[3,4-d]pyridazine-1,4(4aH)-dione] | 201 nM | 10 nM | ≥ 10000 nM | ≥ 10000 nM | 57 nM |  | ≥ 10000 nM | ≥ 10000 nM |
| CCc1c(F)ccc2cc(O)cc(-c3ncc4c(NCC5CCNC5=O)nc(OC[C@@]56CCCN5C[C@H](F)C6)nc4c3F)c12 (stereo partly drawn) [Example 368, 3-(((7-(8-ethyl-7-fluoro-3-hydroxynaphthalen-1-yl)-8-fluoro-2-(((2R,7aS)-2-fluorotetrahydro-1H-pyrrolizin-7a(5H)-yl)methoxy)pyrido[4,3-d]pyrimidin-4-yl)amino)methyl)pyrrolidin-2-one] | 4 nM | 11 nM | 4680 nM | 617 nM | 24 nM |  | ≥ 10000 nM | 191 nM |
| CCc1c(F)ccc2cc(O)cc(-c3ncc4c(NCC5NC(=O)NC5=O)nc(OC[C@@]56CCCN5C[C@H](F)C6)nc4c3F)c12 (stereo partly drawn) [Example 369, 5-(((7-(8-ethyl-7-fluoro-3-hydroxynaphthalen-1-yl)-8-fluoro-2-(((2R,7aS)-2-fluorohexahydro-1H-pyrrolizin-7a-yl)methoxy)pyrido[4,3-d]pyrimidin-4-yl)amino)methyl)imidazolidine-2,4-dione] | 5 nM | 4 nM | 1340 nM | 471 nM | 3 nM |  | ≥ 10000 nM | 294 nM |
| CCc1c(F)ccc2cc(O)cc(-c3ncc4c(NCC5CNC(=O)N5)nc(OC[C@@]56CCCN5C[C@H](F)C6)nc4c3F)c12 (stereo partly drawn) [Example 370, 4-(((7-(8-ethyl-7-fluoro-3-hydroxynaphthalen-1-yl)-8-fluoro-2-(((2R,7aS)-2-fluorohexahydro-1H-pyrrolizin-7a-yl)methoxy)pyrido[4,3-d]pyrimidin-4-yl)amino)methyl)imidazolidin-2-one] | 11 nM | 5 nM | 2980 nM | 516 nM | ≤ 2 nM |  | ≥ 10000 nM | 330 nM |
| CCc1c(F)ccc2cc(O)cc(-c3ncc4c(NCCC5CCC(=O)N5)nc(OC[C@@]56CCCN5C[C@H](F)C6)nc4c3F)c12 (stereo partly drawn) [Example 377, 5-(2-((7-(8-ethyl-7-fluoro-3-hydroxynaphthalen-1-yl)-8-fluoro-2-(((2R,7aS)-2-fluorotetrahydro-1H-pyrrolizin-7a(5H)-yl)methoxy)pyrido[4,3-d]pyrimidin-4-yl)amino)ethyl)pyrrolidin-2-one] | ≤ 2 nM | 12 nM | ≥ 10000 nM | 7780 nM | 3 nM |  | ≥ 10000 nM | 2300 nM |
| CCc1c(F)ccc2cc(O)cc(-c3ncc4c(N5C[C@H](CO)OC[C@](C)(O)C5)nc(OC[C@@]56CCCN5C[C@H](F)C6)nc4c3F)c12 [Example 497, (2R,6R)-4-(7-(8-ethyl-7-fluoro-3-hydroxynaphthalen-1-yl)-8-fluoro-2-(((2R,7aS)-2-fluorohexahydro-1H-pyrrolizin-7a-yl)methoxy)pyrido[4,3-d]pyrimidin-4-yl)-2-(hydroxymethyl)-6-methyl-1,4-oxazepan-6-ol] |  |  | 987 nM | 503 nM |  |  | ≥ 10000 nM | 43 nM |
| CCc1c(F)ccc2cc(O)cc(-c3ncc4c(N5CCCC6(CCS(=N)(=O)C6)C5)nc(OC[C@@]56CCCN5C[C@H](F)C6)nc4c3F)c12 (stereo partly drawn) [Example 508, 7-(7-(8-ethyl-7-fluoro-3-hydroxynaphthalen-1-yl)-8-fluoro-2-(((2R,7aS)-2-fluorohexahydro-1H-pyrrolizin-7a-yl)methoxy)pyrido[4,3-d]pyrimidin-4-yl)-2-imino-2-thia-7-azaspiro[4.5]decane 2-oxide] | 5 nM | 14 nM | 1550 nM | 2190 nM | 12 nM |  |  |  |
| O=C1CC2(CCCN(c3nc(OCC45CCCN4CCC5)nc4c(F)c(-c5cc(O)cc(Cl)c5C5CC5)ncc34)C2)N1 (stereo not shown) [Example 518, 6-(7-(3-chloro-2-cyclopropyl-5-hydroxyphenyl)-8-fluoro-2-((tetrahydro-1H-pyrrolizin-7a(5H)-yl)methoxy)pyrido[4,3-d]pyrimidin-4-yl)-1,6-diazaspiro[3.5]nonan-2-one] | ≤ 2 nM | ≤ 2 nM | ≥ 10000 nM | 9210 nM | ≤ 2 nM |  |  |  |
| O=C1NC(=O)C2CN(c3nc(OCC45CCCN4CCC5)nc4c(F)c(-c5cc(O)cc(Cl)c5C5CC5)ncc34)CC12 (stereo not shown) [Example 519, 5-(7-(3-chloro-2-cyclopropyl-5-hydroxyphenyl)-8-fluoro-2-((tetrahydro-1H-pyrrolizin-7a(5H)-yl)methoxy)pyrido[4,3-d]pyrimidin-4-yl)tetrahydropyrrolo[3,4-c]pyrrole-1,3(2H,3aH)-dione] | ≤ 2 nM | ≤ 2 nM | ≥ 10000 nM | ≥ 10000 nM | ≤ 2 nM |  |  |  |
| Cc1cc2[nH]ncc2c(-c2ncc3c(N4CCC[C@@](C)(O)C4)nc(OCC4(CN(C)C)CC4)nc3c2F)c1C [Example 520, (3R)-1-(7-(5,6-dimethyl-1H-indazol-4-yl)-2-((1-((dimethylamino)methyl)cyclopropyl)methoxy)-8-fluoropyrido[4,3-d]pyrimidin-4-yl)-3-methylpiperidin-3-ol] | 692 nM | 1750 nM | ≥ 10000 nM | ≥ 10000 nM | 614 nM |  |  |  |
| Cc1cc2[nH]ncc2c(-c2ncc3c(N4CCCC5(CNS(=O)(=O)N5)C4)nc(OCC45CCCN4CCC5)nc3c2F)c1C (stereo not shown) [Example 521, 7-(7-(5,6-dimethyl-1H-indazol-4-yl)-8-fluoro-2-((hexahydro-1H-pyrrolizin-7a-yl)methoxy)pyrido[4,3-d]pyrimidin-4-yl)-2-thia-1,3,7-triazaspiro[4.5]decane 2,2-dioxide] | 4 nM | 3 nM | ≥ 10000 nM | ≥ 10000 nM | ≤ 2 nM |  |  |  |
| Cc1cc2[nH]ncc2c(-c2ncc3c(N4CCOCC(C)(O)C4)nc(OCC45CCCN4CCC5)nc3c2F)c1C (stereo not shown) [Example 522, 4-(7-(5,6-dimethyl-1H-indazol-4-yl)-8-fluoro-2-((hexahydro-1H-pyrrolizin-7a-yl)methoxy)pyrido[4,3-d]pyrimidin-4-yl)-6-methyl-1,4-oxazepan-6-ol] | 292 nM | 759 nM | ≥ 10000 nM | ≥ 10000 nM | 390 nM |  |  |  |
| Cc1cc2[nH]ncc2c(-c2ncc3c(N4CCCC5(CC(=O)N5)C4)nc(OCC45CCCN4CCC5)nc3c2F)c1C (stereo not shown) [Example 523, 6-(7-(5,6-dimethyl-1H-indazol-4-yl)-8-fluoro-2-((hexahydro-1H-pyrrolizin-7a-yl)methoxy)pyrido[4,3-d]pyrimidin-4-yl)-1,6-diazaspiro[3.5]nonan-2-one] | 166 nM | 217 nM | ≥ 10000 nM | ≥ 10000 nM | 129 nM |  |  |  |

Reference: US12398154B2, “Azaquinazoline pan-KRas inhibitors” (Mirati Therapeutics, Inc., priority 2020, dated 2025)
